Measured values taken from ChEMBL document CHEMBL1138717, “Synthesis of 8-thiabicyclo[3.2.1]oct-2-enes and their binding affinity for the dopamine and serotonin transporters” (Bioorg Med Chem Lett, 2004).

Key:
[1] = molecular target: Sodium-dependent dopamine transporter (Homo sapiens, UniProt Q01959); experiment: Inhibition of [3H]WIN-35428 binding to human dopamine transporter (hDAT)
[2] = molecular target: Sodium-dependent serotonin transporter (Homo sapiens, UniProt P31645); experiment: Inhibition of [3H]citalopram binding to human serotonin transporter (hSERT)
Chain of Sodium-dependent serotonin transporter (P31645 whole entry): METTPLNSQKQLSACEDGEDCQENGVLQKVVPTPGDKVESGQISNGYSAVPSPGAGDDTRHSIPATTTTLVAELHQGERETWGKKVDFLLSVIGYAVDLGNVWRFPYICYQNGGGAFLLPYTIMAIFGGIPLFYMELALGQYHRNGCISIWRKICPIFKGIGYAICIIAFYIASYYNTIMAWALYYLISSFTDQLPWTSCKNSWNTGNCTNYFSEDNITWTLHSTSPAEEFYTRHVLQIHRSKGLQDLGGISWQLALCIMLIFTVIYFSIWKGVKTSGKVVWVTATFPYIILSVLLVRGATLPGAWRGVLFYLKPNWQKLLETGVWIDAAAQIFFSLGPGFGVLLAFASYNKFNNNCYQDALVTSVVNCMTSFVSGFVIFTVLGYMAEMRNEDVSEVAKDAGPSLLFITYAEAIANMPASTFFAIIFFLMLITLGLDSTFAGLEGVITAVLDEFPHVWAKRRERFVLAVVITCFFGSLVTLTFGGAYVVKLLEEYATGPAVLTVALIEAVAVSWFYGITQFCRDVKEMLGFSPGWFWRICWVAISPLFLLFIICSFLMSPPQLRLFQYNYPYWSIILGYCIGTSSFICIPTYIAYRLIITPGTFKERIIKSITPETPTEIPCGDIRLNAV

[3] = Inhibition of [3H]WIN-35428 binding to dopamine transporter (DAT)

Chain of Sodium-dependent dopamine transporter (Q01959 whole entry): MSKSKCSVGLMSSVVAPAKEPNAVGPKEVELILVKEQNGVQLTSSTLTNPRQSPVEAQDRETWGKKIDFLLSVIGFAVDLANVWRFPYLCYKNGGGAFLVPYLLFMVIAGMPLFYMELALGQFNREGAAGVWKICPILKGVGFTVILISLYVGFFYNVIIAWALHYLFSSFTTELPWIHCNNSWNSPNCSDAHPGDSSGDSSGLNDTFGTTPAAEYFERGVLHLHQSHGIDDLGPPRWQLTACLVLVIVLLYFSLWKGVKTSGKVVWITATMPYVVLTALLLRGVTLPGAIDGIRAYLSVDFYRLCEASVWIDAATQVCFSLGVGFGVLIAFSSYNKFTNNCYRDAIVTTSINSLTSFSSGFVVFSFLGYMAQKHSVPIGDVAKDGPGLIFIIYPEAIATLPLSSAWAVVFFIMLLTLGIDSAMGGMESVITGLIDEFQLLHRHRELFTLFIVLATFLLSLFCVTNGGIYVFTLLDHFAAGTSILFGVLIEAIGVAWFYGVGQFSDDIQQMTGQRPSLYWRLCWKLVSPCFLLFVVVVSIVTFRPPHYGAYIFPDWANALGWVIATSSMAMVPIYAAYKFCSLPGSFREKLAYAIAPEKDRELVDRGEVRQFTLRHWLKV

| SMILES | IC50 [1] [nM] | IC50 [2] [nM] | IC50 [3] [nM] |
| --- | --- | --- | --- |
| COC(=O)C1=C(c2ccc(Cl)c(Cl)c2)CC2CCC1O2 (stereo unspecified) | 12 |  |  |
| COC(=O)C1=C(c2ccccc2)CC2CCC1O2 (stereo unspecified) | > 10000 | > 10000 |  |
| COC(=O)C1=C(c2ccc(Cl)cc2)CC2CCC1O2 (stereo unspecified) | 238 | > 60000 |  |
| COC(=O)C1=C(c2ccc(Cl)c(Cl)c2)CC2CCC1S2 (stereo unspecified) | 4.5 | 3600 |  |
| COC(=O)C1=C(c2ccc(Cl)cc2)CC2CCC1S2 (stereo unspecified) | 13 | > 10000 |  |
| COC(=O)C1=C(c2ccc(Br)cc2)CC2CCC1O2 (stereo unspecified) | 62 | > 30000 |  |
| COC(=O)C1=C(c2ccccc2)CC2CCC1S2 (stereo unspecified) | 910 | > 10000 |  |
| COC(=O)C1=C(c2ccc(I)cc2)CC2CCC1O2 (stereo unspecified) | 68 | 4800 |  |
| COC(=O)C1=C(c2ccc(Br)cc2)CC2CCC1S2 (stereo unspecified) | 9.1 | > 25000 |  |
| COC(=O)C1=C(c2ccc(F)cc2)CC2CCC1O2 (stereo unspecified) | 2730 | > 50000 |  |
| COC(=O)C1=C(c2ccc(F)cc2)CC2CCC1S2 (stereo unspecified) | 220 | 28000 |  |
| COC(=O)C1=C(c2ccc(I)cc2)CC2CCC1S2 (stereo unspecified) | 6.7 | 8700 |  |
| COC(=O)C1=C(c2ccc3ccccc3c2)CC2CCC1S2 (stereo unspecified) | 8 | 1300 |  |
| COC(=O)[C@H]1[C@@H](OC(=O)c2ccccc2)C[C@@H]2CC[C@H]1N2C [COCAINE] |  |  | 100 |
